ChEMBL document CHEMBL1201862, “PubChem BioAssay data set” (2004)
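Tested at 5 concentrations; 48 h exposure; 96-well plates; endpoints linearly interpolated, else capped at highest concentration. The concentration for 50% growth inhibition is given as GI50.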 Active and inactive are the calls of the source. Cut-off read from the data, not from the text of the source: active = GI50 up to about 1.1 µM and inactive = higher.

Key:
Test in all cases: NCI tumour cell line growth inhibition, 48 h
786-0 = system: 786-0
A498 = system: A498
CCRF-CEM = system: CCRF-CEM
EKVX = system: EKVX
HCT-15 = system: HCT-15
NCI-H23 = system: NCI-H23
OVCAR-3 = system: OVCAR-3
OVCAR-4 = system: OVCAR-4
OVCAR-5 = system: OVCAR-5
RXF 393 = system: RXF 393
SF-268 = system: SF-268
SF-295 = system: SF-295
SN12C = system: SN12C
U-251 = system: U-251
UO-31 = system: UO-31
HL-60 = system: HL-60

| SMILES | GI50 (786-0) | GI50 (A498) | GI50 (CCRF-CEM) | GI50 (EKVX) | GI50 (HCT-15) [µM] | GI50 (NCI-H23) | GI50 (OVCAR-3) | GI50 (OVCAR-4) | GI50 (OVCAR-5) | GI50 (RXF 393) | GI50 (SF-268) | GI50 (SF-295) | GI50 (SN12C) | GI50 (U-251) | GI50 (UO-31) | GI50 (HL-60) |
| --- | --- | --- | --- | --- | --- | --- | --- | --- | --- | --- | --- | --- | --- | --- | --- | --- |
| COCCNC(=O)C1C(=O)C(=O)N(CCOC)C1=O (stereo not drawn) | > 100 µM (inactive) | > 100 µM (inactive) | > 100 µM (inactive) | > 100 µM (inactive) | > 100 | > 100 µM (inactive) | > 100 µM (inactive) | > 100 µM (inactive) | > 100 µM (inactive) | > 100 µM (inactive) | > 100 µM (inactive) | > 100 µM (inactive) | > 100 µM (inactive) | > 100 µM (inactive) | > 100 µM (inactive) | – |
| CC(C)CC(NC(=O)OC(C)(C)C)C(=O)Nc1ccc(Nc2nc(F)nc(-c3c4ccccc4c4n3CCS4)n2)cc1 (stereo not drawn) | 19.8 µM (inactive) | 26.2 µM (inactive) | 3.65 µM (inactive) | 19.7 µM (inactive) | 16.3 | 18.7 µM (inactive) | 20.3 µM (inactive) | – | 22.4 µM (inactive) | 34 µM (inactive) | 31.4 µM (inactive) | 20.9 µM (inactive) | 21.6 µM (inactive) | 18.8 µM (inactive) | 19.7 µM (inactive) | 21.9 µM (inactive) |
| CCOC(=O)C1Sc2ccccc2N=C1C (stereo not drawn) | > 100 µM (inactive) | > 100 µM (inactive) | – | > 100 µM (inactive) | > 100 | > 100 µM (inactive) | > 100 µM (inactive) | > 100 µM (inactive) | > 100 µM (inactive) | > 100 µM (inactive) | > 100 µM (inactive) | > 100 µM (inactive) | > 100 µM (inactive) | > 100 µM (inactive) | > 100 µM (inactive) | > 100 µM (inactive) |
| COC(=O)C(=O)C(C(=O)OC)C(=O)C(=O)Nc1cc(Cl)c(C)cc1S(=O)(=O)O (stereo not drawn) | > 100 µM (inactive) | > 100 µM (inactive) | > 100 µM (inactive) | > 100 µM (inactive) | > 100 | > 100 µM (inactive) | > 100 µM (inactive) | > 100 µM (inactive) | > 100 µM (inactive) | > 100 µM (inactive) | > 100 µM (inactive) | > 100 µM (inactive) | > 100 µM (inactive) | > 100 µM (inactive) | > 100 µM (inactive) | > 100 µM (inactive) |
| O=C(Nc1ccc(Cl)cc1)c1cccc([N+](=O)[O-])c1O | 3.88 µM (inactive) | 1.95 µM (inactive) | 2.06 µM (inactive) | 2.98 µM (inactive) | 4.84 | 2.43 µM (inactive) | 1.81 µM (inactive) | 4.07 µM (inactive) | 12 µM (inactive) | 1.78 µM (inactive) | 4.67 µM (inactive) | 3.29 µM (inactive) | 4.09 µM (inactive) | 2.7 µM (inactive) | 1.98 µM (inactive) | 2.07 µM (inactive) |
| O=C(COc1ccccc1Cl)N1N=C(c2ccc(Cl)cc2)CC1(O)c1ccccc1 (stereo not drawn) | > 100 µM (inactive) | – | – | – | > 100 | > 100 µM (inactive) | > 100 µM (inactive) | > 100 µM (inactive) | > 100 µM (inactive) | – | > 100 µM (inactive) | > 100 µM (inactive) | > 100 µM (inactive) | > 100 µM (inactive) | > 100 µM (inactive) | > 100 µM (inactive) |
| COc1cc2c(cc1O)[C@H](C)C(c1ccccc1OC)O2 (stereo partly drawn) | 5.61 µM (inactive) | 4.49 µM (inactive) | 4.21 µM (inactive) | 6.87 µM (inactive) | 3.34 | 6.31 µM (inactive) | 6.53 µM (inactive) | 8.32 µM (inactive) | 75.2 µM (inactive) | 10.9 µM (inactive) | 5.75 µM (inactive) | 3.2 µM (inactive) | – | 2.34 µM (inactive) | 8.57 µM (inactive) | 2.6 µM (inactive) |
| CC(C)C1NC(=O)[C@H](C)OC(=O)[C@@H](C(C)C)NC(=O)[C@@H](C)OC(=O)C(C(C)C)NC(=O)[C@H](C)OC1=O (stereo partly drawn) | 20.9 µM (inactive) | > 100 µM (inactive) | > 100 µM (inactive) | > 100 µM (inactive) | 17.5 | > 100 µM (inactive) | > 100 µM (inactive) | > 67.1 µM (inactive) | > 100 µM (inactive) | – | > 100 µM (inactive) | > 100 µM (inactive) | > 100 µM (inactive) | > 68.4 µM (inactive) | > 100 µM (inactive) | > 100 µM (inactive) |
| CCCN(CCC)C(=O)Cc1c2n(c3ccccc13)CCCc1ccccc1-2 | 16.9 µM (inactive) | – | 17.4 µM (inactive) | 15.1 µM (inactive) | 11.6 | 13 µM (inactive) | 16 µM (inactive) | 13.3 µM (inactive) | – | 10.4 µM (inactive) | 15.1 µM (inactive) | 10.6 µM (inactive) | 15.5 µM (inactive) | 15.7 µM (inactive) | 14.1 µM (inactive) | 15.4 µM (inactive) |
